Source: PubChem BioAssay (NCI)
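Briefly, cells in 96-well plates were exposed to five compound concentrations for 48 h, and endpoints were estimated by linear interpolation. GI50 is the concentration that inhibits growth by half. TGI is the concentration that stops growth completely.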

Columns and labels:
Experiment in all cases: NCI anticancer screen, dose series, 48 h
[1] = test system: BT-549 breast
[2] = test system: HCC-2998 colon
[3] = test system: SNB-19 CNS
[4] = test system: TK-10 renal
[5] = test system: SW-620 colon
[6] = test system: SF-295 CNS
[7] = test system: UACC-257 melanoma
[8] = test system: PC-3 prostate
[9] = test system: NCI-H522 lung
[10] = test system: SK-MEL-2 melanoma
[11] = test system: KM12 colon
[12] = test system: IGROV1 ovarian
[13] = test system: LOX IMVI melanoma
[14] = test system: MOLT-4 leukemia
[15] = test system: CCRF-CEM leukemia
[16] = test system: CAKI-1 renal
[17] = test system: MALME-3M melanoma
[18] = test system: HCT-116 colon
[19] = test system: EKVX NSCLC
[20] = test system: HCT-15 colon
[21] = test system: UO-31 renal
[22] = test system: NCI-H226 lung
[23] = test system: UACC-62 melanoma
[24] = test system: MCF7 breast
[25] = test system: OVCAR-8 ovarian
[26] = test system: RXF 393 renal
[27] = test system: U251 CNS
[28] = test system: SF-268 CNS
[29] = test system: A549 NSCLC
[30] = test system: NCI/ADR-RES ovarian
[31] = test system: MDA-MB-435
[32] = test system: ACHN renal
[33] = test system: OVCAR-4 ovarian
[34] = test system: SR leukemia
[35] = test system: SK-MEL-28 melanoma
[36] = test system: M14 melanoma
[37] = test system: HOP-62 NSCLC
[38] = test system: HT29 colon
[39] = test system: OVCAR-3 ovarian
[40] = test system: OVCAR-5 ovarian
[41] = test system: SNB-75 CNS
[42] = test system: SK-OV-3 ovarian
[43] = test system: HL-60(TB) leukemia
[44] = test system: RPMI-8226 leukemia
[45] = test system: 786-0 renal
[46] = test system: HS 578T breast
[47] = test system: K-562 leukemia
[48] = test system: A498 renal
[49] = test system: NCI-H460 lung
[50] = test system: SF-539 CNS
[51] = test system: HOP-92 NSCLC
[52] = test system: SN12C renal
[53] = test system: SK-MEL-5 melanoma
[54] = test system: COLO 205 colon
[55] = test system: DU-145 prostate
[56] = test system: MDA-MB-231 breast
[57] = test system: T-47D breast

Question: For `CC[C@@H](CO)Nc1ccc2ncc(C#Cc3cncc(C(=O)Nc4ccc(CN5CCN(C)CC5)c(C(F)(F)F)c4)c3)n2n1`, which GI50 [1] is on record?
Answer: 614 nM

Question: What about the TGI [1] of the same molecule?
Answer: 1350 nM

Question: And the GI50 [2]?
Answer: 238 nM

Question: What about the TGI [2] of the same molecule?
Answer: 858 nM

Question: What about the GI50 [3] of the same molecule?
Answer: 203 nM

Question: What about the TGI [3] of the same molecule?
Answer: 1240 nM

Question: And the GI50 [4]?
Answer: 343 nM

Question: And the TGI [4]?
Answer: 1180 nM

Question: What about the GI50 [5] of the same molecule?
Answer: 81.3 nM

Question: And the TGI [5]?
Answer: 281 nM

Question: And the GI50 [6]?
Answer: 413 nM

Question: What about the TGI [6] of the same molecule?
Answer: 1390 nM

Question: What about the GI50 [7] of the same molecule?
Answer: 390 nM

Question: What about the TGI [7] of the same molecule?
Answer: 1250 nM

Question: What about the GI50 [8] of the same molecule?
Answer: 272 nM

Question: And the TGI [8]?
Answer: 1790 nM

Question: What about the GI50 [9] of the same molecule?
Answer: 59.2 nM

Question: What about the TGI [9] of the same molecule?
Answer: 157 nM

Question: And the GI50 [10]?
Answer: 115 nM

Question: And the TGI [10]?
Answer: 339 nM

Question: What about the GI50 [11] of the same molecule?
Answer: 9.27 nM

Question: What about the TGI [11] of the same molecule?
Answer: 793 nM

Question: And the GI50 [12]?
Answer: 77 nM

Question: And the TGI [12]?
Answer: 365 nM

Question: What about the GI50 [13] of the same molecule?
Answer: 63.4 nM

Question: What about the TGI [13] of the same molecule?
Answer: 258 nM

Question: What about the GI50 [14] of the same molecule?
Answer: 43.8 nM

Question: What about the TGI [14] of the same molecule?
Answer: 693 nM

Question: And the GI50 [15]?
Answer: 26.4 nM

Question: And the TGI [15]?
Answer: 1310 nM

Question: What about the GI50 [16] of the same molecule?
Answer: 142 nM

Question: What about the TGI [16] of the same molecule?
Answer: 458 nM

Question: What about the GI50 [17] of the same molecule?
Answer: 125 nM

Question: And the TGI [17]?
Answer: 544 nM

Question: And the GI50 [18]?
Answer: 66.1 nM

Question: What about the TGI [18] of the same molecule?
Answer: 355 nM

Question: What about the GI50 [19] of the same molecule?
Answer: 142 nM

Question: And the TGI [19]?
Answer: 1050 nM

Question: And the GI50 [20]?
Answer: 583 nM

Question: What about the TGI [20] of the same molecule?
Answer: 1700 nM

Question: What about the GI50 [21] of the same molecule?
Answer: 917 nM

Question: What about the TGI [21] of the same molecule?
Answer: 1930 nM

Question: And the GI50 [22]?
Answer: 79.6 nM

Question: And the TGI [22]?
Answer: 635 nM

Question: What about the GI50 [23] of the same molecule?
Answer: 284 nM

Question: What about the TGI [23] of the same molecule?
Answer: 1100 nM

Question: What about the GI50 [24] of the same molecule?
Answer: 46.9 nM

Question: And the TGI [24]?
Answer: 409 nM

Question: And the GI50 [25]?
Answer: 169 nM

Question: And the TGI [25]?
Answer: 627 nM

Question: And the GI50 [26]?
Answer: 110 nM

Question: What about the TGI [26] of the same molecule?
Answer: 333 nM

Question: And the GI50 [27]?
Answer: 243 nM

Question: What about the TGI [27] of the same molecule?
Answer: 805 nM

Question: And the GI50 [28]?
Answer: 109 nM

Question: And the TGI [28]?
Answer: 554 nM

Question: And the GI50 [29]?
Answer: 199 nM

Question: And the TGI [29]?
Answer: 768 nM

Question: And the GI50 [30]?
Answer: 5580 nM

Question: And the TGI [30]?
Answer: 18400 nM

Question: What about the GI50 [31] of the same molecule?
Answer: 104 nM

Question: What about the TGI [31] of the same molecule?
Answer: 634 nM

Question: What about the GI50 [32] of the same molecule?
Answer: 363 nM

Question: And the TGI [32]?
Answer: 1180 nM

Question: And the GI50 [33]?
Answer: 145 nM

Question: And the TGI [33]?
Answer: 982 nM

Question: And the GI50 [34]?
Answer: 34 nM

Question: What about the TGI [34] of the same molecule?
Answer: 534 nM

Question: And the GI50 [35]?
Answer: 278 nM

Question: What about the TGI [35] of the same molecule?
Answer: 1100 nM

Question: And the GI50 [36]?
Answer: 118 nM

Question: What about the TGI [36] of the same molecule?
Answer: 360 nM

Question: What about the GI50 [37] of the same molecule?
Answer: 178 nM

Question: And the TGI [37]?
Answer: 909 nM

Question: And the GI50 [38]?
Answer: 157 nM

Question: And the TGI [38]?
Answer: 655 nM

Question: What about the GI50 [39] of the same molecule?
Answer: 167 nM

Question: What about the TGI [39] of the same molecule?
Answer: 954 nM

Question: What about the GI50 [40] of the same molecule?
Answer: 236 nM

Question: And the TGI [40]?
Answer: 1310 nM

Question: What about the GI50 [41] of the same molecule?
Answer: 20.6 nM

Question: What about the TGI [41] of the same molecule?
Answer: 108 nM

Question: And the GI50 [42]?
Answer: 622 nM

Question: What about the TGI [42] of the same molecule?
Answer: 2150 nM

Question: And the GI50 [43]?
Answer: 104 nM

Question: What about the TGI [43] of the same molecule?
Answer: 462 nM

Question: And the GI50 [44]?
Answer: 254 nM

Question: And the TGI [44]?
Answer: 1070 nM

Question: And the GI50 [45]?
Answer: 282 nM

Question: And the TGI [45]?
Answer: 986 nM

Question: What about the GI50 [46] of the same molecule?
Answer: 59.8 nM

Question: What about the TGI [46] of the same molecule?
Answer: 451 nM

Question: What about the GI50 [47] of the same molecule?
Answer: 5 nM

Question: What about the TGI [47] of the same molecule?
Answer: 1640 nM

Question: What about the GI50 [48] of the same molecule?
Answer: 1060 nM

Question: And the TGI [48]?
Answer: 1920 nM

Question: And the GI50 [49]?
Answer: 163 nM

Question: What about the TGI [49] of the same molecule?
Answer: 541 nM

Question: And the GI50 [50]?
Answer: 32 nM

Question: What about the TGI [50] of the same molecule?
Answer: 172 nM

Question: And the GI50 [51]?
Answer: 67 nM

Question: What about the TGI [51] of the same molecule?
Answer: 261 nM

Question: And the GI50 [52]?
Answer: 45.2 nM

Question: And the TGI [52]?
Answer: 605 nM

Question: And the GI50 [53]?
Answer: 681 nM

Question: And the TGI [53]?
Answer: 1350 nM

Question: What about the GI50 [54] of the same molecule?
Answer: 89.2 nM

Question: And the TGI [54]?
Answer: 196 nM

Question: What about the GI50 [55] of the same molecule?
Answer: 144 nM

Question: And the TGI [55]?
Answer: 543 nM

Question: And the GI50 [56]?
Answer: 48.2 nM

Question: What about the TGI [56] of the same molecule?
Answer: 500 nM

Question: What about the GI50 [57] of the same molecule?
Answer: 582 nM

Question: And the TGI [57]?
Answer: 1590 nM
